Test results: US9611249B2, “1H-indazole-3-carboxamide compounds as glycogen synthase kinase 3 beta inhibitors” (AZIENDE CHIMICHE RIUNITE ANGELINI FRANCESCO A.C.R.A.F. …, priority 2012, dated 2017)

What was measured:
[1] = biological target: CDK2 (h) (cycA) (Homo sapiens (Human), UniProt P24941); experiment: Kinase selectivity panel: CDK2 (h) (cycA); type: biochemical; settings: 10 μM in duplicate, read-out: % inhibition of control values
Procedure: (§1) (a) Compounds 1 and 2 were tested against a panel of 60 kinases in order to assess their selectivity. The assays were chosen taking into consideration the diversity of assay families.
(§2) Tested kinases were representative of following kinase sub-families: • protein-serine/threonine kinases; • protein-tyrosine kinases; • other kinases; and • atypical kinases.
(§3) Human recombinant kinases were incubated in the presence of specific peptide substrates plus ATP for different times (10, 15, 30, 60 or 90 minutes) at 22° C. Phosphorylated substrate was detected by LANCE or HTRF technology (CISBIO, MA, USA). The compounds were tested at 10 μM in duplicate.
(§4) The results are expressed as a percentage of inhibition of control specific activity obtained in the presence of the test compounds and are reported in the following Table 5.
(§5) (b) Compounds 3, 8, 29 and 31 were tested against the same panel of 60 kinases under the same conditions described above for compounds 1 and 2.
(§6) The results are expressed as a percent of inhibition of control specific activity obtained in the presence of the test compounds and are reported in the following Table 6.

[2] = biological target: DYRK1a (h) (Homo sapiens (Human), UniProt Q13627); experiment: Kinase selectivity panel: DYRK1a (h); type: biochemical; settings: 10 μM in duplicate, read-out: % inhibition of control values
Procedure: as §1, §2, §3, §4, §5, §6

[3] = biological target: CDC2/CDK1 (h) (cycB) (Homo sapiens (Human), UniProt P06493); experiment: Kinase selectivity panel: CDC2/CDK1 (h) (cycB); type: biochemical; settings: 10 μM in duplicate, read-out: % inhibition of control values
Procedure: as §1, §2, §3, §4, §5, §6

[4] = biological target: smMLCK (h) (MYLK) (Homo sapiens (Human), UniProt Q15746); experiment: Kinase selectivity panel: smMLCK (h) (MYLK); type: biochemical; settings: 10 μM in duplicate, read-out: % inhibition of control values
Chain of smMLCK (h) (MYLK) (Q15746 whole entry): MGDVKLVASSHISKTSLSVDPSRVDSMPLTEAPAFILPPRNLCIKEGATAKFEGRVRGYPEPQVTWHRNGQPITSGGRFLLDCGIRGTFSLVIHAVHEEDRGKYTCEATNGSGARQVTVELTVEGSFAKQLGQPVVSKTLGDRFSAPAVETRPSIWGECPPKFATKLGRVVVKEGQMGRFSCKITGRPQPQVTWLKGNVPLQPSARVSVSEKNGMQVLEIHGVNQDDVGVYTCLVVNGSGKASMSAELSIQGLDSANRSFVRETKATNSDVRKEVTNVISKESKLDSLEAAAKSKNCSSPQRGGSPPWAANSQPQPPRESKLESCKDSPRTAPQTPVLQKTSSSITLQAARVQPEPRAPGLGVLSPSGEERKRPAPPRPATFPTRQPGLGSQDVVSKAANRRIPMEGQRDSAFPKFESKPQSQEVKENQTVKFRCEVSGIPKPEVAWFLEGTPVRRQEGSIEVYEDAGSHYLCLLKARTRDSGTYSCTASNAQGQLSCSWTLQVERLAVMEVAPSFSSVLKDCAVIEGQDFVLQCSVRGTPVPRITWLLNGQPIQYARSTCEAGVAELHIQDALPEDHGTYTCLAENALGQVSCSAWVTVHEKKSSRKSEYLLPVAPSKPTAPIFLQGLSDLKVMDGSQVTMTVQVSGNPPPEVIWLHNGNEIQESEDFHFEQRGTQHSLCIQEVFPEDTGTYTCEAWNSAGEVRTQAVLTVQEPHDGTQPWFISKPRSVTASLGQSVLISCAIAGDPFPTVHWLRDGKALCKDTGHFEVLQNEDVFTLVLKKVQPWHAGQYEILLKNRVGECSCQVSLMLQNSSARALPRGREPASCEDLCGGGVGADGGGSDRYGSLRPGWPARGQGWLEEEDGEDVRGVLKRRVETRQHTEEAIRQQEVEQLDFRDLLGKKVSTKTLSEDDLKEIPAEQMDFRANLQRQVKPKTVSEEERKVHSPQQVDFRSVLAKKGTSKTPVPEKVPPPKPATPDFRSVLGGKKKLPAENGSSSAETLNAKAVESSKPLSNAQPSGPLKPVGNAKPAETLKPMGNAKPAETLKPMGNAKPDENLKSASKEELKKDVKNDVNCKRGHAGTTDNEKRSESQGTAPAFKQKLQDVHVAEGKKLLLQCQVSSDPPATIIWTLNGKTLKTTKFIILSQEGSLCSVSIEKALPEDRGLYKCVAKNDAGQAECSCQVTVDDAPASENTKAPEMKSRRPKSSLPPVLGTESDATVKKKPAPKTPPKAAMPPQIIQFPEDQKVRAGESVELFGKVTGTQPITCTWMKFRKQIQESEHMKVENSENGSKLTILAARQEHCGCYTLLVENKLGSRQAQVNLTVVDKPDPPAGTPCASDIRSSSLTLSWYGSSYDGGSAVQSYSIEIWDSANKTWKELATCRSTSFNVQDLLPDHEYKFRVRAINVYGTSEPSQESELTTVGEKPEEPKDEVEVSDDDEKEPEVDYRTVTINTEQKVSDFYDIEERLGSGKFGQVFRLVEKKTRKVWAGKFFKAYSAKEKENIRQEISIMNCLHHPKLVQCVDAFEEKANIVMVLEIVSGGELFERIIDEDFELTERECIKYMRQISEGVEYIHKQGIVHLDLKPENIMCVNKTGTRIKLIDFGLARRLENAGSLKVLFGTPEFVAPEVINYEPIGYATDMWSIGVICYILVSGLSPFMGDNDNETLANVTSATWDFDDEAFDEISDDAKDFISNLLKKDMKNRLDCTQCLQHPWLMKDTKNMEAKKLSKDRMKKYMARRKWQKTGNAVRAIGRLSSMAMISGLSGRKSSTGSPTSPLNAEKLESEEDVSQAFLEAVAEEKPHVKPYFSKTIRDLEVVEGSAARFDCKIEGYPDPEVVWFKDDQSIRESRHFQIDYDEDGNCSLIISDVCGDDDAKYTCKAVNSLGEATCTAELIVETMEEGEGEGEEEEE
Procedure: as §1, §2, §3, §4, §5, §6

[5] = biological target: ERK1 (h) (Homo sapiens (Human), UniProt P27361); experiment: Kinase selectivity panel: ERK1 (h); type: biochemical; settings: 10 μM in duplicate, read-out: % inhibition of control values
Procedure: as §1, §2, §3, §4, §5, §6

[6] = biological target: human GSK-3β (Homo sapiens (Human), UniProt P49841); experiment: GSK-3β LanthaScreen TR-FRET Eu Kinase binding and displacement assay; settings: compounds 16 to 41, LanthaScreen TR-FRET binding and displacement assay, five concentrations 100 μM to 10 nM
Chain of human GSK-3β (P49841 whole entry): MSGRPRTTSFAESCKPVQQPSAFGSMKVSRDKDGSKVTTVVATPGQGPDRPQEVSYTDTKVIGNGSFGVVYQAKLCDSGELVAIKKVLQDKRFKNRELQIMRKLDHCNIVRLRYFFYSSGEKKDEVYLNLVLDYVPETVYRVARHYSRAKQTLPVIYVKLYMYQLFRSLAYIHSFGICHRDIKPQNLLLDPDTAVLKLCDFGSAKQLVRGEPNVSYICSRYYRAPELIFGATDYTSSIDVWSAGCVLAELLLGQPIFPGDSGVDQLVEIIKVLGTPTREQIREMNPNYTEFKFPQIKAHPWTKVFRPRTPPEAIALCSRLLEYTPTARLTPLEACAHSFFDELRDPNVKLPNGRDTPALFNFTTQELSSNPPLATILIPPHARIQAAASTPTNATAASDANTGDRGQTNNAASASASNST
Procedure: In a second assay, the same compounds were assayed at five concentrations ranging from 100 μM to 10 nM with ten-fold dilutions in duplicate. Compounds 1 to 15 were tested using the same first assay, compounds 16 to 41 were tested in another assay based on the binding and displacement of AlexaFluor® 647 labeled, ATP-competitive Kinase inhibitor scaffold using LanthaScreen™ TR-FRET technology Eu Kinase assay packet according to manufacturer's instruction (Life Technologies, Italy).
The IC50 values (concentration causing a half maximal inhibition of control specific activity), reported in table 4, were determined by non-linear regression analysis of the inhibition curves generated with mean replicate values using Hill equation curve fitting.

[7] = biological target: PCTAIRE1 kinase (h) (Homo sapiens (Human), UniProt Q00536); experiment: Kinase selectivity panel: PCTAIRE1 kinase (h); type: biochemical; settings: 10 μM in duplicate, read-out: % inhibition of control values
Chain of PCTAIRE1 kinase (h) (Q00536 whole entry): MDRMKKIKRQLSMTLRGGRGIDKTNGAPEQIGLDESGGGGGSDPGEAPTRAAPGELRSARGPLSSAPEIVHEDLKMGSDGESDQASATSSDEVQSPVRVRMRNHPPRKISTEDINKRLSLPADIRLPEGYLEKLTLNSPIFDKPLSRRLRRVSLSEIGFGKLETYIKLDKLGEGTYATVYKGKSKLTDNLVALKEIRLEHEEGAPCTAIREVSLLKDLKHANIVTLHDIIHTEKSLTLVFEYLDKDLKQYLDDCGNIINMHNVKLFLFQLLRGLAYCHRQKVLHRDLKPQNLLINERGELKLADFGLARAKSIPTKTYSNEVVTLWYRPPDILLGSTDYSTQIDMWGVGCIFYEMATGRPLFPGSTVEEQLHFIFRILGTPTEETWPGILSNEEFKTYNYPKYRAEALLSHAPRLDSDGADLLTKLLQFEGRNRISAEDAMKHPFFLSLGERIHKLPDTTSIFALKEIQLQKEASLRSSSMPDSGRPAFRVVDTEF
Procedure: as §1, §2, §3, §4, §5, §6

[8] = biological target: NEK1 (h) (Homo sapiens (Human), UniProt Q96PY6); experiment: Kinase selectivity panel: NEK1 (h); type: biochemical; settings: 10 μM in duplicate, read-out: % inhibition of control values
Procedure: as §1, §2, §3, §4, §5, §6

[9] = biological target: GSK3beta (h) (Homo sapiens (Human), UniProt P49841); experiment: Kinase selectivity panel: GSK3beta (h); type: biochemical; settings: for inhibition at 10 µM: GSK3beta (h), 10 μM in duplicate, read-out: % inhibition of control values; for selectivity for GSK-3β compared to the other kinases of the panel: panel of 60 kinases, 10 μM, conclusion in words
Chain of GSK3beta (h) (P49841 whole entry): as the sequence (P49841 whole entry) above
Procedure: as §1, §2, §3, §4, §6

[10] = biological target: CDK5/p35 (h) (Homo sapiens (Human), UniProt Q00535); experiment: Kinase selectivity panel: CDK5/p35 (h); type: biochemical; settings: 10 μM in duplicate, read-out: % inhibition of control values
Procedure: as §1, §2, §3, §4, §5, §6

[11] = biological target: MEK1/MAP2K1 (h) (Homo sapiens (Human), UniProt Q02750); experiment: Kinase selectivity panel: MEK1/MAP2K1 (h); type: biochemical; settings: 10 μM in duplicate, read-out: % inhibition of control values
Procedure: as §1, §2, §3, §4, §5, §6

[12] = biological target: TAOK2 (TAO1) (h) (Homo sapiens (Human), UniProt Q9UL54); experiment: Kinase selectivity panel: TAOK2 (TAO1) (h); type: biochemical; settings: 10 μM in duplicate, read-out: % inhibition of control values
Procedure: as §1, §2, §3, §4, §5, §6

[13] = biological target: TRKA (h) (Homo sapiens (Human), UniProt P04629); experiment: Kinase selectivity panel: TRKA (h); type: biochemical; settings: 10 μM in duplicate, read-out: % inhibition of control values
Procedure: as §1, §2, §3, §4, §5, §6

[14] = biological target: HGK (h) (MAP4K4) (Homo sapiens (Human), UniProt O95819); experiment: Kinase selectivity panel: HGK (h) (MAP4K4); type: biochemical; settings: 10 μM in duplicate, read-out: % inhibition of control values
Chain of HGK (h) (MAP4K4) (O95819 whole entry): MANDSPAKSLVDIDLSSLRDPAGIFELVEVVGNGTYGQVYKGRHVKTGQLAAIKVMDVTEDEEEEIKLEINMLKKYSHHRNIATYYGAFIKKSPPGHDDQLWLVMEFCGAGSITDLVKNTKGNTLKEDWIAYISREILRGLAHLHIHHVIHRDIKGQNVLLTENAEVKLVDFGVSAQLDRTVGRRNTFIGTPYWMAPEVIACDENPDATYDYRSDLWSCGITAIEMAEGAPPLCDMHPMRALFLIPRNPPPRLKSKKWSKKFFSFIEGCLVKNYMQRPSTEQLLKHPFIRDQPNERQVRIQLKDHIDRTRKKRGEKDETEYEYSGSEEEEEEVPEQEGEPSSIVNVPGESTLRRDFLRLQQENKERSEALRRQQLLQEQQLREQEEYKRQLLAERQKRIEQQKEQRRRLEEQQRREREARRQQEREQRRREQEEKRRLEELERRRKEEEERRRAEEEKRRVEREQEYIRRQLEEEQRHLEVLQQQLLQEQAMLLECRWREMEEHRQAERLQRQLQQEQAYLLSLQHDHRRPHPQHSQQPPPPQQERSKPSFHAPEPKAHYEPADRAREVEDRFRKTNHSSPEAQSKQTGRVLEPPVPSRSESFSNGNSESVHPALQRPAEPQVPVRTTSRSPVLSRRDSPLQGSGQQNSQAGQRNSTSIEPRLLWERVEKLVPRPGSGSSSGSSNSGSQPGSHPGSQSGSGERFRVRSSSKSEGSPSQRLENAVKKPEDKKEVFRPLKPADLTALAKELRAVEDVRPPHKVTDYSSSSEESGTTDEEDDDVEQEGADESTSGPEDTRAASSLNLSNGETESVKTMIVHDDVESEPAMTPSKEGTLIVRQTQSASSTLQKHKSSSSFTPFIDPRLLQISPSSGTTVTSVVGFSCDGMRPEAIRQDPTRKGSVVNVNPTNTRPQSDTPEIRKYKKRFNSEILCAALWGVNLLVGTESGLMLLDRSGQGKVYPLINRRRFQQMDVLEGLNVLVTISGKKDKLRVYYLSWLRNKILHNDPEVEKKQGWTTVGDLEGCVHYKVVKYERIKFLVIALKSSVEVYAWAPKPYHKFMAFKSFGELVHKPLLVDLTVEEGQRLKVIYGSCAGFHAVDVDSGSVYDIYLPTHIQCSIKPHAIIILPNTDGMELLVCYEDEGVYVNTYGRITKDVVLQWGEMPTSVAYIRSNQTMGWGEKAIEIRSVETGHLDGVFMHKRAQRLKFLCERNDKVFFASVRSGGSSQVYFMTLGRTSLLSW
Procedure: as §1, §2, §3, §4, §5, §6

[15] = biological target: Src kinase (h) (Homo sapiens (Human), UniProt P12931); experiment: Kinase selectivity panel: Src kinase (h); type: biochemical; settings: 10 μM in duplicate, read-out: % inhibition of control values
Chain of Src kinase (h) (P12931 whole entry, looked up): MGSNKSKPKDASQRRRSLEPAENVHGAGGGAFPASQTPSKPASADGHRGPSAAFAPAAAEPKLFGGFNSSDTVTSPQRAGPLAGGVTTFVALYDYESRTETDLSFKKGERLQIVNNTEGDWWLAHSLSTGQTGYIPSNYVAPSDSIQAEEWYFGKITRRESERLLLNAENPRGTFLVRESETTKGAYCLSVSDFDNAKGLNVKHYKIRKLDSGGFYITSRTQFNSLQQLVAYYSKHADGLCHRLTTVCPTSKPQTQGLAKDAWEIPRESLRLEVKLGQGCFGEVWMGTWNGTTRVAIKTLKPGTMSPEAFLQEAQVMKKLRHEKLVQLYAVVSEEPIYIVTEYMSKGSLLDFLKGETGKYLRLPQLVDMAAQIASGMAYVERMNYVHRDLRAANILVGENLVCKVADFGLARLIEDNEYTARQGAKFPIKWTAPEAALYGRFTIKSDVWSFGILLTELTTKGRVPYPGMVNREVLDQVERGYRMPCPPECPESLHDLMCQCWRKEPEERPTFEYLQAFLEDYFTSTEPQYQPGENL
Procedure: as §1, §2, §3, §4, §5, §6

[16] = biological target: IRK (h) (InsR) (Homo sapiens (Human), UniProt P06213); experiment: Kinase selectivity panel: IRK (h) (InsR); type: biochemical; settings: 10 μM in duplicate, read-out: % inhibition of control values
Procedure: as §1, §2, §3, §4, §5, §6

[17] = biological target: ERK2 (h) (P42mapk) (Homo sapiens (Human), UniProt P28482); experiment: Kinase selectivity panel: ERK2 (h) (P42mapk); type: biochemical; settings: 10 μM in duplicate, read-out: % inhibition of control values
Chain of ERK2 (h) (P42mapk) (P28482 whole entry): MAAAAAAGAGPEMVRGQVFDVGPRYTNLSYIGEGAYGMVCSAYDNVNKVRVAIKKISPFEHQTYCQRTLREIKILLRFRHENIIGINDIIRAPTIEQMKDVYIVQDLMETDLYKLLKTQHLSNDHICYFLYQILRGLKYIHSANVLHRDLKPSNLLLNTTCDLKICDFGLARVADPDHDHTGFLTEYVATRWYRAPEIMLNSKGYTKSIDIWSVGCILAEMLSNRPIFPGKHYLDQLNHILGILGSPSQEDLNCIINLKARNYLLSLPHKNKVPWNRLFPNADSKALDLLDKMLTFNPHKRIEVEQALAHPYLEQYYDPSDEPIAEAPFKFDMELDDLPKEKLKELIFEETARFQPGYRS
Procedure: as §1, §2, §3, §4, §5, §6

SMILES: CCc1ccc2[nH]nc(C(=O)NCC3CCN(CC(=O)O)CC3)c2c1 [Compound 31, [4-({[(5-ethyl-1H-indazol-3-yl)carbonyl]amino}methyl)piperidin-1-yl]acetic acid]
- inhibition at 10 µM [1]: 35%
- inhibition at 10 µM [2]: 77%
- inhibition at 10 µM [3]: 10%
- inhibition at 10 µM [4]: 1%
- inhibition at 10 µM [5]: 1%
- IC50 [6]: 0.96 µM
- inhibition at 10 µM [7]: 27%
- inhibition at 10 µM [8]: 0%
- inhibition at 10 µM [9]: 89%
- selectivity for GSK-3β compared to the other kinases of the panel [9]: good selectivity profile
- inhibition at 10 µM [10]: 16%
- inhibition at 10 µM [11]: 9%
- inhibition at 10 µM [12]: 9%
- inhibition at 10 µM [13]: 0%
- inhibition at 10 µM [14]: 10%
- inhibition at 10 µM [15]: 9%
- inhibition at 10 µM [16]: 0%
- inhibition at 10 µM [17]: 9%

SMILES: O=C(O)CN1CCC(CNC(=O)c2n[nH]c3ccc(-c4cccc(F)c4F)cc23)CC1 [Compound 29, {4-[({[5-(2,3-difluorophenyl)-1H-indazol-3-yl]carbonyl}amino)methyl]piperidin-1-yl}acetic acid]
- inhibition at 10 µM [1]: 77%
- inhibition at 10 µM [2]: 100%
- inhibition at 10 µM [3]: 80%
- inhibition at 10 µM [4]: 17%
- inhibition at 10 µM [5]: 61%
- IC50 [6]: 0.03 µM
- inhibition at 10 µM [7]: 49%
- inhibition at 10 µM [8]: 9%
- inhibition at 10 µM [9]: 100%
- selectivity for GSK-3β compared to the other kinases of the panel [9]: good affinity to GSK-3β when compared to most of other kinases of the same family
- inhibition at 10 µM [10]: 77%
- inhibition at 10 µM [11]: 75%
- inhibition at 10 µM [12]: 61%
- inhibition at 10 µM [13]: 3%
- inhibition at 10 µM [14]: 71%
- inhibition at 10 µM [15]: 0%
- inhibition at 10 µM [16]: 0%
- inhibition at 10 µM [17]: 67%
